# Measurements published in patent US11541029B2, “High penetration compositions and their applications” (Techfields Pharma Co., Ltd., priority 2008, dated 2023).
# Assays:
# [1] = test system: GK rats (SLAC/GK, type 2 diabetes); assay: Anti-diabetes (type II) activity of HPCs of NSAIAs in GK rats; assay type: in vivo; conditions: 30 mg/kg transdermally once per day, no fasting
# Procedure: (§1) A HPC in the present disclosure lowered blood glucose levels in rat models (SLAC/GK, type 2 diabetes, n=7). 30 mg/kg of 8% diethylaminoethyl acetylsalicylate.HCl salt (P-1, in 25% ethanol); 4-acetamidophenyl salicylyldimethylaminobutyrate.HCl (P-6, in 25% ethanol), diethylaminoethyl 5-(2,4-difluorophenyl)acetylsalicylate.5-(2,4-difluorophenyl)acetylsalicylic acid salt (P-8, in 25% ethanol), diethylaminoethyl salicylsalicylate.HCl salt (P-9, in 25% ethanol), diethylaminoethyl salicylate.AcOH(P-10, in 25% ethanol), diethylaminoethyl 5-acetamido-acetylsalicylate.HCl(P-58, in 25% ethanol), diethylaminoethyl acetylsalicylsalicylate. HCl salt (P-59, in 25% ethanol), diethylaminoethyl acetylsalicylsalicylsalicylate. HCl salt (P-60, in 25% ethanol) were administered transdermally to the backs (6 cm^2, fur was shaved) of GK rats (SLAC/GK, 14-16 weeks old) and normal SD rats (SLAC/SD, 14-16 weeks old) once per day (at 8 am) for 6 weeks.
# (§2) The blood glucose levels were measured once every 3 days at 4:30 pm (no fasting) from the third week to the sixth week as shown in Table 10a and 10b. […] Moreover, the blood glucose levels of the rats stayed at normal level (6-9 mmol/L, no fasting) after the treatment was stopped for 40 days.
# SLAC/DB/DB obese mice = assay: Blood glucose and blood lipid levels in DB/DB mice; assay type: in vivo; conditions: 30 mg/kg transdermally once per day
# Procedure: HPCs in the present disclosure lowered blood glucose levels and blood lipid levels in mice models (SLAC/DB/DB, obese mice, n=7). 30 mg/kg of 8% diethylaminoethyl acetylsalicylate.HCl salt (P-1, in 25% ethanol); 4-acetamidophenyl salicylyldimethylaminobutyrate.HCl (P-6, in 25% ethanol), diethylaminoethyl 5-(2,4-difluorophenyl)acetylsalicylate.5-(2,4-difluorophenyl)acetylsalicylic acid salt (P-8, in 25% ethanol), diethylaminoethyl salicylsalicylate.HCl salt (P-9, in 25% ethanol), diethylaminoethyl salicylate.AcOH(P-10, in 25% ethanol), diethylaminoethyl 5-acetamido-acetylsalicylate.HCl(P-58, in 25% ethanol), diethylaminoethyl acetylsalicylsalicylate.HCl salt (P-59, in 25% ethanol), diethylaminoethyl acetylsalicylsalicylsalicylate.HCl salt (P-60, in 25% ethanol) were administered transdermally to the backs (4 cm^2,fur was shaved) of DB/DB mice(SLAC/DB/DB, 10-12 weeks old) once per day (at 8 am) for 5 weeks. The blood glucose levels were measured once per week and blood lipid levels were measured once every other week.
# [2] = test system: SLAC:NOD-IDDM, type 1 diabetes; assay: Anti-diabetes (type I) activity of HPCs of NSAIAs; assay type: in vivo, mice; conditions: for blood glucose, Baseline: equal to 20 mg/kg of NSAIAs transdermally twice per day for 7 weeks; for blood glucose, Average: fourth week to seventh week, no fasting, equal to 20 mg/kg of NSAIAs transdermally twice per day
# Source text: 10% aqueous solution of diethylaminoethyl acetylsalicylate.acetylsalicylic acid salt (P-1, […]); 4-acetamidophenyl salicylyldimethylaminobutyrate. HCl (P-6), diethylaminoethyl 5-(2,4-difluorophenyl)acetylsalicylate.5-(2,4-difluorophenyl)acetylsalicylic acid salt (P-8), diethylaminoethyl salicylsalicylate.AcOH(P-9), diethylaminoethyl 5-acetamido-acetylsalicylate. HCl (P-58), diethylaminoethyl 2-(ρ-isobutylphenyl) propionate.citric acid (P-59), diethylaminoethyl acetylsalicylsalicylate. acetylsalicylsalicylsalicylic acid salt (P-60) (equal to of 20 mg/kg of NSAIAs) were administered transdermally to the shaved back (about 1.5 cm^2) of mice twice per day (at 8 am and 5 pm) for 7 weeks.
# The blood glucose levels were measured once every 3 days at 4:30 pm (no fasting) from the fourth week to the seventh week as shown in Table 11.
# normal SD rats (SLAC/SD) = assay: Blood glucose in normal SD rats treated with HPCs of NSAIAs; assay type: in vivo; conditions: 30 mg/kg transdermally once per day, no fasting
# Procedure: as §1, §2
# [3] = test system: Human Gastric Cancer HGC-27 cell; assay: HGC-27 cell proliferation, MTT assay; assay type: cell-based; conditions: Homo sapiens, HGC-27, 72 hours, read-out: HGC-27 cell growth inhibition rate
# Procedure: The inhibition of cellular proliferation was measured by the modified dimethyl thiazolyl diphenyl tetrazolium salt (MTT) [3-(4,5-dimethylthiazol-2-yl)-2,5-diphenyltetrazolium bromide] assay, based on the ability of live cells to converting thiazolyl blue to dark blue formazan. Approximately 3500 cells of HGC-27 (in 100 μl culture solution) were seeded into 96-well culture plates and were cultured for 16 hours at 37° C. Different concentration solution (100 μl) of Taxol (positive control), chlorambucil, or N,N-diethylaminoethyl 4-[bis(2-chloroethyl)amino]benzenebutyrate.HCl salt (HPC of chlorambucil) were added and incubation continued for 72 hours at 37° C. Then MTT were added and incubation continued at 37° C. for 4 h, and 100 μl DMSO was pipetted to solubilize the formazan product for 30 min at room temperature. The absorbency at 570 nm was measured using Bio-Rad micro-plate reader […].
# [4] = test system: human myeloma cell line implanted into mice; assay: Survival of mice with multiple myeloma (Example 110, Study B); assay type: in vivo; conditions: n=5
# Procedure: Study B: For evaluation of antitumor activity, a human myeloma cell line derived from the ascites of a patient with multiple myeloma was implanted into mice. The experiment was carried out on 17 groups of mice. Control group (A, orally), chlorambucil (group B1: 1 mg/kg, orally, group B2, 3 mg/kg, orally, group B3:1 mg/kg, transdermally, and group B4: 3 mg/kg, transdermally), melphalan (group C1: 1 mg/kg, orally, group C2, 3 mg/kg, orally, group C3:1 mg/kg, transdermally, and group C4: 3 mg/kg, transdermally), N,N-diethylaminoethyl 4-[bis(2-chloroethyl)amino]benzenebutyrate.HBr (the HPC of chlorambucil (group D1: 1 mg/kg, orally, group D2, 3 mg/kg, orally, group D3:1 mg/kg, transdermally, and group D4: 3 mg/kg, transdermally), and 4-[bis(2-chloroethyl)amino]-N-acetyl-L-phenylalanine N,N-diethylaminoethyl ester hydrobromide (the HPC of melphalan) (group E1: 1 mg/kg, orally, group E2, 3 mg/kg, orally, group E3:1 mg/kg, transdermally, and group E4: 3 mg/kg, transdermally).
# [5] = test system: human myeloma cell line implanted into mice; assay: Survival and weight loss of myeloma mice (Example 111); assay type: in vivo; conditions: orally; for Weight Loss: day 21; for Life Elongation Rate / None Disease Rate / Survival Period: n=7
# Source text: A human myeloma cell line derived from the ascites of a patient with multiple myeloma was implanted into mice. The mice was divided into 11 groups: control group (A, orally), melphalan (B1 and B2, orally), chlorambucil (C1 and C2, orally), N,N-diethylaminoethyl 4-[bis(2-chloroethyl)amino]benzenebutyrate.HBr (D1 and D2, transdermally), 4-[bis(2-chloroethyl)amino]-N-acetyl-L-phenylalanine N,N-diethylaminoethyl ester hydrobromide (E1 and E2, transdermally in 5% aqueous solution), and diethylaminoethyl 4-[bis(2-methylsulfonylethyl)amino]benzenebutyrate.HCl (F1 and F2, transdermally in 5% aqueous solution). The body weight loss of mice was determined on day 21.
smiles,measurement,setting,value
"CC(=O)Nc1ccc(OC(=O)c2ccccc2OC(=O)CCCN(C)C)cc1.Cl [P-6, 4-acetamidophenyl salicylyldimethylaminobutyrate.HCl]","blood glucose, Average (Week 2-5)",[1],9.2 ± 2.7 mmol/L
same,"blood glucose, Day 1",[1],16.8 ± 3.0 mmol/L
same,"Cholesterol (total), Day 1",SLAC/DB/DB obese mice,7.0 ± 0.4 mmol/L
same,"Cholesterol (total), Week 5",SLAC/DB/DB obese mice,4.9 ± 0.5 mmol/L
same,"Triglycerides, Day 1",SLAC/DB/DB obese mice,4.4 ± 0.5 mmol/L
same,"Triglycerides, Week 5",SLAC/DB/DB obese mice,2.5 ± 0.3 mmol/L
same,"blood glucose, Day 1",SLAC/DB/DB obese mice,14.2 ± 2.0 mmol/L
same,"blood glucose, Week 5",SLAC/DB/DB obese mice,9.5 ± 2.8 mmol/L
same,"blood glucose, Baseline",[2],18.9 ± 4.3 mmol/L
same,"blood glucose, Average",[2],9.5 ± 2.1 mmol/L
same,"blood glucose, Average (Week 2-5)",normal SD rats (SLAC/SD),5.8 ± 1.1 mmol/L
same,"blood glucose, Day 1",normal SD rats (SLAC/SD),5.7 ± 1.3 mmol/L
"CC(=O)Oc1ccc(-c2ccc(F)cc2F)cc1C(=O)O.CCN(CC)CCOC(=O)c1cc(-c2ccc(F)cc2F)ccc1OC(C)=O [P-8, diethylaminoethyl 5-(2,4-difluorophenyl)acetylsalicylate.5-(2,4-difluorophenyl)acetylsalicylic acid salt]","blood glucose, Average (Week 2-5)",[1],8.3 ± 2.1 mmol/L
same,"blood glucose, Day 1",[1],16.9 ± 2.8 mmol/L
same,"Cholesterol (total), Day 1",SLAC/DB/DB obese mice,6.8 ± 0.4 mmol/L
same,"Cholesterol (total), Week 5",SLAC/DB/DB obese mice,5.0 ± 0.2 mmol/L
same,"Triglycerides, Day 1",SLAC/DB/DB obese mice,4.4 ± 0.4 mmol/L
same,"Triglycerides, Week 5",SLAC/DB/DB obese mice,2.2 ± 0.4 mmol/L
same,"blood glucose, Day 1",SLAC/DB/DB obese mice,14.5 ± 2.7 mmol/L
same,"blood glucose, Week 5",SLAC/DB/DB obese mice,8.4 ± 2.1 mmol/L
same,"blood glucose, Baseline",[2],19.4 ± 3.1 mmol/L
same,"blood glucose, Average",[2],9.7 ± 1.4 mmol/L
same,"blood glucose, Average (Week 2-5)",normal SD rats (SLAC/SD),5.7 ± 1.2 mmol/L
same,"blood glucose, Day 1",normal SD rats (SLAC/SD),5.6 ± 1.5 mmol/L
"CCN(CC)CCOC(=O)c1ccccc1OC(=O)c1ccccc1O.Cl [P-9, diethylaminoethyl salicylsalicylate.HCl salt]","blood glucose, Average (Week 2-5)",[1],9.4 ± 2.7 mmol/L
same,"blood glucose, Day 1",[1],16.4 ± 2.3 mmol/L
same,"Cholesterol (total), Day 1",SLAC/DB/DB obese mice,7.7 ± 0.5 mmol/L
same,"Cholesterol (total), Week 5",SLAC/DB/DB obese mice,4.9 ± 0.5 mmol/L
same,"Triglycerides, Day 1",SLAC/DB/DB obese mice,4.1 ± 0.4 mmol/L
same,"Triglycerides, Week 5",SLAC/DB/DB obese mice,2.1 ± 0.3 mmol/L
same,"blood glucose, Day 1",SLAC/DB/DB obese mice,14.1 ± 2.5 mmol/L
same,"blood glucose, Week 5",SLAC/DB/DB obese mice,8.7 ± 2.3 mmol/L
same,"blood glucose, Baseline",[2],16.5 ± 3.6 mmol/L
same,"blood glucose, Average",[2],8.4 ± 1.9 mmol/L
same,"blood glucose, Average (Week 2-5)",normal SD rats (SLAC/SD),5.6 ± 1.2 mmol/L
same,"blood glucose, Day 1",normal SD rats (SLAC/SD),5.5 ± 1.3 mmol/L
"CC(=O)O.CCN(CC)CCOC(=O)c1ccccc1O [P-10, diethylaminoethyl salicylate.AcOH]","blood glucose, Average (Week 2-5)",[1],9.1 ± 2.2 mmol/L
same,"blood glucose, Day 1",[1],16.7 ± 3.2 mmol/L
same,"Cholesterol (total), Day 1",SLAC/DB/DB obese mice,6.8 ± 0.4 mmol/L
same,"Cholesterol (total), Week 5",SLAC/DB/DB obese mice,4.7 ± 0.5 mmol/L
same,"Triglycerides, Day 1",SLAC/DB/DB obese mice,4.8 ± 0.9 mmol/L
same,"Triglycerides, Week 5",SLAC/DB/DB obese mice,2.3 ± 0.3 mmol/L
same,"blood glucose, Day 1",SLAC/DB/DB obese mice,15.1 ± 3.7 mmol/L
same,"blood glucose, Week 5",SLAC/DB/DB obese mice,9.2 ± 2.3 mmol/L
same,"blood glucose, Baseline",[2],18.8 ± 3.4 mmol/L
same,"blood glucose, Average",[2],8.6 ± 1.8 mmol/L
same,"blood glucose, Average (Week 2-5)",normal SD rats (SLAC/SD),5.7 ± 1.3 mmol/L
same,"blood glucose, Day 1",normal SD rats (SLAC/SD),5.8 ± 1.2 mmol/L
"CCN(CC)CCOC(=O)c1cc(NC(C)=O)ccc1OC(C)=O.Cl [P-58, diethylaminoethyl 5-acetamido-acetylsalicylate.HCl]","blood glucose, Average (Week 2-5)",[1],9.4 ± 3.0 mmol/L
same,"blood glucose, Day 1",[1],17.1 ± 2.8 mmol/L
same,"Cholesterol (total), Day 1",SLAC/DB/DB obese mice,7.1 ± 0.3 mmol/L
same,"Cholesterol (total), Week 5",SLAC/DB/DB obese mice,5.1 ± 0.6 mmol/L
same,"Triglycerides, Day 1",SLAC/DB/DB obese mice,4.9 ± 0.4 mmol/L
same,"Triglycerides, Week 5",SLAC/DB/DB obese mice,4.3 ± 0.5 mmol/L
same,"blood glucose, Day 1",SLAC/DB/DB obese mice,15.6 ± 2.9 mmol/L
same,"blood glucose, Week 5",SLAC/DB/DB obese mice,9.3 ± 2.1 mmol/L
same,"blood glucose, Baseline",[2],17.9 ± 3.2 mmol/L
same,"blood glucose, Average",[2],8.1 ± 1.9 mmol/L
same,"blood glucose, Average (Week 2-5)",normal SD rats (SLAC/SD),5.8 ± 1.1 mmol/L
same,"blood glucose, Day 1",normal SD rats (SLAC/SD),5.9 ± 1.2 mmol/L
"O=C(O)CCCc1ccc(N(CCCl)CCCl)cc1 [chlorambucil, reference compound]",inhibition at 0.5 µM,[3]; 0.5 μM,0.3%
same,inhibition at 2 µM,[3]; 2.0 μM,1.6%
same,inhibition at 5 µM,[3]; 5.0 μM,12.5%
same,inhibition at 25 µM,[3]; 25 μM,31.5%
same,inhibition at 50 µM,[3]; 50 μM,39.4%
same,inhibition at 75 µM,[3]; 75 μM,41.5%
same,inhibition at 100 µM,[3]; 100 μM,53.1%
same,inhibition at 200 µM,[3]; 200 μM,62.1%
same,inhibition at 500 µM,[3]; 500 μM,81%
same,Life Elongation Rate,"[4]; 1 mg/kg per day, orally",107%
same,Survival Period,"[4]; 1 mg/kg per day, orally",48.7 ± 5.3 days
same,Life Elongation Rate,"[4]; 1 mg/kg per day, transdermally",99%
same,Survival Period,"[4]; 1 mg/kg per day, transdermally",46.1 ± 3.6 days
same,Life Elongation Rate,"[4]; 3 mg/kg per day, orally",151%
same,Survival Period,"[4]; 3 mg/kg per day, orally",68.5 ± 4.2 days
same,Life Elongation Rate,"[4]; 3 mg/kg per day, transdermally",98%
same,Survival Period,"[4]; 3 mg/kg per day, transdermally",44.6 ± 3.6 days
same,Weight Loss,[5]; 1.5 mg/kg per day,10%
same,Life Elongation Rate,[5]; 1.5 mg/kg per day,126%
same,None Disease Rate,[5]; 1.5 mg/kg per day,2/7
same,Survival Period,[5]; 1.5 mg/kg per day,54.8 ± 5.5 days
same,Weight Loss,[5]; 3 mg/kg per day,17%
same,Life Elongation Rate,[5]; 3 mg/kg per day,200%
same,None Disease Rate,[5]; 3 mg/kg per day,3/7
same,Survival Period,[5]; 3 mg/kg per day,87.2 ± 6.9 days
